From EP1529533A1, “Use of GH secretagogues in hypoxic-ischemic brain injury” (Sahltech I Göteborg AB, priority 2003, dated 2005)
Where a SMILES comes first, the peptide text is derived from it. [ ]: non-standard residue; d: D form. dTrp(2-Me) = Cc1[nH]c2ccccc2c1C[C@@H](N)C(=O)O

Experiment: Body temperature, mortality and body weight in the hypoxia-ischemia study
Assay type: in vivo, rats
Conditions: between the two groups (hexarelin vs. vehicle); data not shown
Source text: In a neonatal model that has previously been described (Rice J. E., V. R. C. Brierley, Ann. Neurol. 9 (1981), 1126-35; Hagberg H. et al., Acta Paedeatr. Suppl 442 (1997), 85-88). Seven-day-old out bred Wistar Fue rats were anesthetised with enflurane (3,5% for induction and 1,5% for maintenance) in a mixture of nitrous oxide and oxygen on a snout mask. The left common carotid artery was cut between two prolene sutures (9-0). After anesthesia and surgery the animals were returned to there dams and allowed to recover for 60 minutes. They were thereafter exposed to 60 minutes of hypoxia in a humidified chamber at 36°C with 7.7±0.01% oxygen in nitrogen. The pups were returned to and kept with their dams until they were killed at different time points after the insult Animals were either perfused intracardially with saline and 5% buffered formaldehyde (Histofix; Histolab, Göteborg, Sweden) for preparation of paraffin sections or fresh tissue were immediately frozen in isopenthane on dry ice for preparation of protein homogenates. The animal ethics committee in Gothenburg approved the animal studies.
Animals received daily intracerebral injections of 5 µl solution containing either 5µg hexarelin or vehicle (NaCl 0.9 mg/ml). Injections were headed for the left ventricular at 1.5 mm lateral to the Sagittal suture, 5.7 mm rostral to lambda and 2.8 mm deep to the skull surface with a special made needle of 27 gauge. Injection velocity of 1.5 µl/min with a Hamilton syringe connected to a MCA pump.
Brain injury was evaluated and observer blinded between the study groups using a neuropathological scoring system where injury in cortex was graded from 0-4 with 0 being no observable injury and 4 being confluent infarction encompassing most of the hemisphere. The damage in the hippocampus, thalamus and striatum was assessed regarding both hypothrophy (shrinkage of cells) 0-3 and observable cell injury/infarction 0-3, resulting in a scoring for each region 0-6. The total score 0-22 was the sum score for all the four regions.

Cc1[nH]c2ccccc2c1C[C@@H](NC(=O)[C@@H](N)Cc1cnc[nH]1)C(=O)N[C@@H](C)C(=O)N[C@@H](Cc1c[nH]c2ccccc12)C(=O)N[C@H](Cc1ccccc1)C(=O)N[C@@H](CCCCN)C(N)=O [Hexarelin] (H-H[dTrp(2-Me)]AW[dF]K-NH2)
no differences: body temperature | body weight | mortality
